Data reported in ChEMBL document CHEMBL1201862, “PubChem BioAssay data set” (2004).
Activity calls are given as the source filed them.

Legend:
[1] = biological target: Glyceraldehyde-3-phosphate dehydrogenase (Homo sapiens, UniProt P04406)
Vero = experiment: viability of Vero cells under compound – cytotoxicity control for flavivirus capping enzyme inhibitors (AID 588742); type: functional; settings: Chlorocebus sabaeus
Genome polyprotein = Genome polyprotein (dengue virus type 2, UniProt P29990); experiment: flavivirus cap methylation enzyme inhibition – biochemical, confirmation dose response, primary screen (AID 588689); type: functional
[2] = biological target: T1, Corticotropin-releasing factor receptor 2/Corticotropin-releasing factor-binding protein (Homo sapiens, UniProt P24387+Q13324); experiment: activators of CRF receptor 2 with binding protein – uHTS hits, confirmation (AID 602473); type: functional; settings: read-out: EC50_Mean
T1 sequence (Q13324 whole entry): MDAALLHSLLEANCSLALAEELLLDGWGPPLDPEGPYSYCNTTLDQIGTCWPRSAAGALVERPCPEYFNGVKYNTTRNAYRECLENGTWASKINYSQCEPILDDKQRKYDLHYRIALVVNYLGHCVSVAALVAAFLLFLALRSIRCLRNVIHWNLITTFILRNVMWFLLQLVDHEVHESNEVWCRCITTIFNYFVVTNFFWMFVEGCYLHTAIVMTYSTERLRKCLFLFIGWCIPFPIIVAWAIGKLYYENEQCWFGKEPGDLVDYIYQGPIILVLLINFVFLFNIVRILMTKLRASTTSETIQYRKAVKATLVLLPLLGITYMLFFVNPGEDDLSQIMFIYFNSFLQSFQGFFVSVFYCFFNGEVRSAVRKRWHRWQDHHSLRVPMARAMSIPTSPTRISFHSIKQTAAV
T1 sequence (P24387 whole entry): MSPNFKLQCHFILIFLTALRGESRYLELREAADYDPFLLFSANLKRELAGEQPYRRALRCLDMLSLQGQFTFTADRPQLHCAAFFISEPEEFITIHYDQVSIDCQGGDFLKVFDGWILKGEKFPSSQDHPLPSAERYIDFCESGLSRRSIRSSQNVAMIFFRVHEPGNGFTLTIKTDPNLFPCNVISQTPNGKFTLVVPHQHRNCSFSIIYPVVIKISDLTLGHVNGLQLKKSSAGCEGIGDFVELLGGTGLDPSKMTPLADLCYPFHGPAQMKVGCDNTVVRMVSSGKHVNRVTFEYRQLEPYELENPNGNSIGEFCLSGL

[3] = biological target: T1, Corticotropin-releasing factor receptor 2/Corticotropin-releasing factor-binding protein; experiment: Dose Response confirmation of uHTS hits for small molecule antagonists of the CRF-binding protein and CRF-R2 receptor complex.; type: functional; settings: read-out: IC50_Mean
Protein RecA = biological target: T2, Protein RecA (Mycobacterium tuberculosis, UniProt P9WHJ3); experiment: Fluorescence Cell-Free Homogeneous Dose Retest to Identify Inhibitors of RecA-Intein Splicing Activity. [Related pubchem assays (depositor defined):AID2097, AID2223, AID489010, AID492950]; type: functional
T2 sequence (P9WHJ3 whole entry): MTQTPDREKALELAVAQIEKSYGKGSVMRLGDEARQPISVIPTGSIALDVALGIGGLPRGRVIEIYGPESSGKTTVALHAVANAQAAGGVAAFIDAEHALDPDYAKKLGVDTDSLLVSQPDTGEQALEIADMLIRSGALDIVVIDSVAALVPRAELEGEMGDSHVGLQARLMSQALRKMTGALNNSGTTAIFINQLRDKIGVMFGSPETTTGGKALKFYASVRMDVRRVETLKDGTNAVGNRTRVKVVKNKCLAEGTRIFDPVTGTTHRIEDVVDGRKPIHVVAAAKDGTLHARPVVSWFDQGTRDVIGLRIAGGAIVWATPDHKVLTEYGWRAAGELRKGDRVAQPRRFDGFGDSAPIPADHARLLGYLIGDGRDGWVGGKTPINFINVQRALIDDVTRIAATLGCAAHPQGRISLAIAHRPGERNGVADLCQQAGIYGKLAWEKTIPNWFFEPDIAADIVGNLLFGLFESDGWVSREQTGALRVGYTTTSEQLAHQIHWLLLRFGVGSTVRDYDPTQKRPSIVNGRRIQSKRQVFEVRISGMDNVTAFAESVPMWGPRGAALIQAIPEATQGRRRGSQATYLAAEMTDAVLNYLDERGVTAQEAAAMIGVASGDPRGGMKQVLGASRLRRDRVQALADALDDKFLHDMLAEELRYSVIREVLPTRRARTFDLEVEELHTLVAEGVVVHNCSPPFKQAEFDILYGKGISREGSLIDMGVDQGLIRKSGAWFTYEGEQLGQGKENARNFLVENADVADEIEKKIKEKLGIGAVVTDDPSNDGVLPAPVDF

[4] = biological target: T3, Replicative DNA helicase DnaB (Mycobacterium tuberculosis, UniProt P9WMR3); experiment: DnaB intein splicing inhibitors, dose response, biochemical, cell-free fluorescence (AID 449749); type: functional
T3 sequence (P9WMR3 whole entry): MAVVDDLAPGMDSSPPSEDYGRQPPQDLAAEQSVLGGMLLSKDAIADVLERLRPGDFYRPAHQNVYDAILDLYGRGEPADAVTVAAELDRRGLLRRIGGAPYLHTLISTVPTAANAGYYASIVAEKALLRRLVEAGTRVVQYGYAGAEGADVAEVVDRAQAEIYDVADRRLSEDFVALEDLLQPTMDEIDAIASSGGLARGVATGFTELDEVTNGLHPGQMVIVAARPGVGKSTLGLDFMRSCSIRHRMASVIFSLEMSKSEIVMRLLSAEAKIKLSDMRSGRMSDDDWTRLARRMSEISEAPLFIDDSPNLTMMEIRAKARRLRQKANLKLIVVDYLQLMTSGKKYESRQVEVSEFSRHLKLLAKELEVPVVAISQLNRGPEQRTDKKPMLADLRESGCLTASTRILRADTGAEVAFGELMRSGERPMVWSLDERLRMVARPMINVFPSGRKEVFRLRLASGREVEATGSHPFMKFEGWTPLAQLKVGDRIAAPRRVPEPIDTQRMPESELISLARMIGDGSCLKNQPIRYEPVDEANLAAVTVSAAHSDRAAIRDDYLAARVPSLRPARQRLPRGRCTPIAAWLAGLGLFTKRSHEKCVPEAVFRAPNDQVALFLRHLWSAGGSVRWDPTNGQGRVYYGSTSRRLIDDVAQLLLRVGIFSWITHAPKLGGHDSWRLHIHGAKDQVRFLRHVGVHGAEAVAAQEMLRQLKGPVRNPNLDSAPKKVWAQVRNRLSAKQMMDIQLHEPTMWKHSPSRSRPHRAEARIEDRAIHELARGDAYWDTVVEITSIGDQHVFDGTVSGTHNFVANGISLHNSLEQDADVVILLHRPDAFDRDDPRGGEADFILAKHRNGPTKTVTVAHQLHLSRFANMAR

[5] = biological target: T4, Carboxy-terminal domain RNA polymerase II polypeptide A small phosphatase 1 (Homo sapiens, UniProt Q9GZU7); experiment: CTDSP1 inhibitors, concentration-response, biochemical, absorbance readout, ultra-high-throughput screen actives (AID 540297); type: functional
T4 sequence (Q9GZU7 whole entry): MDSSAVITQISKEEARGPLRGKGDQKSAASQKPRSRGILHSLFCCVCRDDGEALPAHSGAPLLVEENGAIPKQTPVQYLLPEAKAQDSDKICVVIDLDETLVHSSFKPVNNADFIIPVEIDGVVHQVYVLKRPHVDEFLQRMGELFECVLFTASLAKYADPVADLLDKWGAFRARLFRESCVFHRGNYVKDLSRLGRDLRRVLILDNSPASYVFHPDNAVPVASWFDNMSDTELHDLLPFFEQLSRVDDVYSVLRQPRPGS

H4 = experiment: Luminescence Cell-Based Dose Response HTS to Identify Activators of 5'UTR Stem-Loop Driven Prion Protein mRNA Translation in H4 Neuroglioblastoma Cells. [Related pubchem assays: 1829 (Project Summary), 1814 (Primary HTS)]; type: functional; settings: Homo sapiens
[6] = Luminescence Cell-Based Dose Confirmation HTS to Identify Activators of 5'UTR Stem-Loop Driven Alpha-Synuclein mRNA Translation in H4 Neuroglioblastoma Cells. [Related pubchem assays: 1829 (Project Summary), 1814 (Primary HTS)]; type: functional
[7] = Luminescence Cell-Based Dose Response HTS to Identify Activators of Luciferase Translation or Activity in H4 […] Cells. [Related pubchem assays: 1829 (Project Summary), 1814 (Primary HTS)]; type: functional
[8] = biological target: T5, Zinc finger protein mex-5 (Caenorhabditis elegans, UniProt Q9XUB2); experiment: potency of MEX-5 RNA-binding blockers – biochemical, C. elegans, fluorescence polarization, dose response (AID 1960)
T5 sequence (Q9XUB2 whole entry): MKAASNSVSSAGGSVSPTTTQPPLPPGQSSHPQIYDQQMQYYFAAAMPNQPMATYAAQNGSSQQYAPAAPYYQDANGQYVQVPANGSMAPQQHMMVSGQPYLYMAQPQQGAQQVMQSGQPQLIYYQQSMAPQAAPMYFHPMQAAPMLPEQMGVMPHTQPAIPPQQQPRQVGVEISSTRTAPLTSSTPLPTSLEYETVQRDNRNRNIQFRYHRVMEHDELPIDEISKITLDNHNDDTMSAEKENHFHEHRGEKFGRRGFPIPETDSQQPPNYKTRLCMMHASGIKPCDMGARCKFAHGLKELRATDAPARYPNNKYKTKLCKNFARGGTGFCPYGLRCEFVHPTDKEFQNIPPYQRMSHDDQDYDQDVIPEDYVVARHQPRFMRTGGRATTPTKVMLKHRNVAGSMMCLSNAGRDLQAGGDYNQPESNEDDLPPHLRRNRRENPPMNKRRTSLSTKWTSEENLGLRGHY

[9] = biological target: T6, RNA-binding protein pos-1 (Caenorhabditis elegans, UniProt G5EF15); experiment: disruptors of C. elegans POS-1 RNA interaction – biochemical, fluorescence polarization, dose response (AID 1964);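 also: purified POS-1 fused to maltose binding protein made in E. coli; potency of compounds blocking POS-1 binding to fluorescent RNA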
T6 sequence (G5EF15 whole entry): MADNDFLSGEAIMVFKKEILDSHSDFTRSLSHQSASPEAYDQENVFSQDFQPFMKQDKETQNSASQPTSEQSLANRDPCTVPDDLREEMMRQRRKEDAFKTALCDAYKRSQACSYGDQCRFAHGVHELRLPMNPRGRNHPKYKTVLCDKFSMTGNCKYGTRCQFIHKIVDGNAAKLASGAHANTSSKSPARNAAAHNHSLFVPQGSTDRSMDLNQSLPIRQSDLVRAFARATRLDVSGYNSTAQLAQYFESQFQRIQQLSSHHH

[10] = biological target: T7, Ubiquitin-conjugating enzyme E2 N (Homo sapiens, UniProt P61088); type: functional;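 also: Dose-response confirmation in a TR-FRET assay detecting UBC13-driven polyubiquitin chain formation, inhibition measured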
T7 sequence (P61088 whole entry): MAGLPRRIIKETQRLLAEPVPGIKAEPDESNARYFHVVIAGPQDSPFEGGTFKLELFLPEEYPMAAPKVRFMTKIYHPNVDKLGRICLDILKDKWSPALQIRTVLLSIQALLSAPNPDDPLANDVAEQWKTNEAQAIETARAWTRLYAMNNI

[11] = viability of PTEN-deleted HCT116 cells – cell-based, HCT116 PTEN knockout, dose response (AID 1047); type: functional;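 also: HCT116 colon tumor cells with PTEN knocked out; cells exposed to compound for 60 hours before readout; potency for loss of cell viability measured by luminescence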
[12] = viability of HCT116 lacking mutant beta-catenin – cell-based, human colon tumor, dose response (AID 1045); type: functional;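 also: HCT116 colon tumor cells with beta catenin knocked out; cells exposed to compound for 60 hours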

Chain of Genome polyprotein (P29990 2492-3391 limits assumed): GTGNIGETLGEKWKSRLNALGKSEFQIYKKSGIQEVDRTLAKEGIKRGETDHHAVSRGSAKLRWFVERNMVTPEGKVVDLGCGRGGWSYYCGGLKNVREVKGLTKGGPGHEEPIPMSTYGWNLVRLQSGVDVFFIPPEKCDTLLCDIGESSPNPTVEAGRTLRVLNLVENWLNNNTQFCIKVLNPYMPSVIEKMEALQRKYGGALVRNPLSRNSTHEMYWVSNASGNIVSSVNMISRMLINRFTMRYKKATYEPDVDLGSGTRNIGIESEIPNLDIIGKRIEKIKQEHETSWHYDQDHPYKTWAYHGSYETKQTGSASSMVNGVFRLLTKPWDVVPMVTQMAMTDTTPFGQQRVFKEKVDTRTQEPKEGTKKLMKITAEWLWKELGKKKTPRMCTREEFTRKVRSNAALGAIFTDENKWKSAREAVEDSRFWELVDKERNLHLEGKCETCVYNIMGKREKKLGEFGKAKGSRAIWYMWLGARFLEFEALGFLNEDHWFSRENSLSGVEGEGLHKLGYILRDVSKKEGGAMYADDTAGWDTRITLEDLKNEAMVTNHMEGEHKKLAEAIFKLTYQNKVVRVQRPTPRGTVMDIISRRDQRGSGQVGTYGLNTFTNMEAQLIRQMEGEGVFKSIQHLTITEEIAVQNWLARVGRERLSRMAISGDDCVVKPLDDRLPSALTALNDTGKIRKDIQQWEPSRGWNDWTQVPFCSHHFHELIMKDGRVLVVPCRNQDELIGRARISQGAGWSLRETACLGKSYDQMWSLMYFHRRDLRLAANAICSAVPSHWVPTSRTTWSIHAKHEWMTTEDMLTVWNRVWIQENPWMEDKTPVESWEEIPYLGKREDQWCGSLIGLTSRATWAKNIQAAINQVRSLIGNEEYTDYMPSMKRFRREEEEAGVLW
Chain of Glyceraldehyde-3-phosphate dehydrogenase (P04406 whole entry): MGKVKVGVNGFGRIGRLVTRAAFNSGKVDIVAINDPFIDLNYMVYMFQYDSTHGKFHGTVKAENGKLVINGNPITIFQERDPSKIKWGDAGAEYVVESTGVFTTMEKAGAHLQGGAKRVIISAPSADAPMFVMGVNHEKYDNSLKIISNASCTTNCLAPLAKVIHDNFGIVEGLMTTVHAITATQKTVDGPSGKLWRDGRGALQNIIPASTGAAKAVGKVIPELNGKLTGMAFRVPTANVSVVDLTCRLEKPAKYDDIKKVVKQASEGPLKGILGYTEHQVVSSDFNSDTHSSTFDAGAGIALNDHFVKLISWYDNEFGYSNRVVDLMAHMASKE

NS(=O)(=O)c1ccc(NC(=O)COc2ccccc2)cc1
IC50 [1]: > 100 µM (not active)

Cc1ccc(S(=O)(=O)N2[C@@H](c3ccc(Br)cc3)C(C(=O)O)=C[C@H]2CC2CCCC2)cc1
CC50 (Vero): > 40 µM (active) | IC50 (Genome polyprotein): 37 µM (active)

CC(=O)c1ccc(NC(=O)CCc2nnc3ccc(N4CCC5(CC4)OCCO5)nn23)cc1
EC50 [2]: > 53 µM (inactive) | IC50 [3]: > 47.1 µM (inactive)

CCOc1ccc(/C=C2\SC(=S)N(CCC(=O)Nc3ccccc3C(=O)O)C2=O)cc1
EC50 (Protein RecA): 15.1 µM (active) | AC50 [4]: 6.1 µM (active) | IC50 [5]: 4.86 µM (active) | IC50 (Genome polyprotein): 29.3 µM (active)

CCC(C)/C=C(C)/C=C/C1=CC2=C(Cl)C(=O)C(C)(OC(C)=O)C(=O)C2=CO1 (stereo not drawn)
EC50 (H4): > 120 µM (not active) | EC50 [6]: > 120 µM (not active) | EC50 [7]: > 120 µM (not active) | CC50 (Vero): > 40 µM (active) | IC50 (Genome polyprotein): 38 µM (active) | EC50 [8]: > 300 µM (not active) | EC50 [9]: > 300 µM (not active)

CCCC(C(=O)NC(C)(C)C)N(Cc1ccccc1Cl)C(=O)c1snc(C(N)=O)c1N (stereo not drawn)
IC50 [10]: > 20 µM (inactive)

CC1(C)CC2=NC3=C(C(=O)c4ccccc43)C(c3ccc(Cl)cc3)C2=C(O)C1 (stereo not drawn)
EC50 [11]: 13.1 µM (active) | IC50 [10]: > 20 µM (inactive) | EC50 [12]: 13.8 µM (active)

Cc1c(Cl)cccc1N1C(=O)c2ccccc2C1=O
EC50 [2]: > 53 µM (inactive) | IC50 [3]: > 47.1 µM (inactive)

COc1cc(C(=O)Nc2cccc(S(=O)(=O)N3CCCC3)c2)cc(OC)c1C
IC50 [10]: > 20 µM (inactive)
